According to article PMC11491346, “Molecular insights and inhibitory dynamics of flavonoids in targeting Pim-1 kinase for cancer therapy” (Frontiers in Pharmacology, 2024):

Molecular target: Pim-1 kinase (Homo sapiens, UniProt P11309)
Assay: luminescence-based kinase assay (ADP to ATP, Ultra-Glo Luciferase), Pim-1 assay
Type: biochemical
Conditions: for class as Pim-1 kinase inhibitor (in words): Figures 10, 11 and 13; for IC50: in vitro enzyme inhibition, read-out: Pim-1 kinase inhibitory activity IC50
From the text: Enzyme activity was quantified using a luminescence-based kinase assay, which tracks the conversion of ADP to ATP, subsequently producing light via Ultra-Glo™ Luciferase. This luminescence is indicative of ADP levels and thus, enzyme activity. This method is particularly effective for analyzing the influence of various chemicals on different kinases, serving both initial screenings and specificity profiling.
The inhibitory concentration (IC50) values, expressed in micromolar (μM), were obtained from the Pim-1 assay. These values were converted to their corresponding negative logarithmic scale (pIC50) to facilitate a linear comparison using the following formula: pIC50=−log10 IC50 in M Where IC50 values were first converted from μM to molar (M) units before logarithmic transformation. Pulling force values, measured in pN, were sourced from the SMD experiments.

Pim-1 kinase, sequence (P11309 whole entry): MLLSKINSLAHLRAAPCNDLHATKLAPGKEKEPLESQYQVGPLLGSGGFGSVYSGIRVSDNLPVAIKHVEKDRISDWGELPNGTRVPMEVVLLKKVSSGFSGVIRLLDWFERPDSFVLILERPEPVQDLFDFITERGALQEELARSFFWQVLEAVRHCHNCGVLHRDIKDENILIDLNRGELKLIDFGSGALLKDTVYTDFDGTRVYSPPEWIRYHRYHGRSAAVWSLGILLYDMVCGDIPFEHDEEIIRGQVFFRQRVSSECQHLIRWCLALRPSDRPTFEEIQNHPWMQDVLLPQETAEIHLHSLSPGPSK

| IC50 | SMILES | other results |
| --- | --- | --- |
| 5.33 µM | O=c1cc(-c2ccccc2)oc2cc(O)cc(O)c12 [Compound 6] |  |
| 1.81 µM | O=c1c(O)c(-c2ccccc2)oc2cc(O)cc(O)c12 [Compound 8, Galangin] |  |
| 1.78 µM | O=c1c(O)c(-c2ccc(O)cc2)oc2cc(O)cc(O)c12 [Compound 9, Kaempferol] |  |
| 5.28 µM | O=c1cc(-c2ccc(O)cc2)oc2cc(O)cc(O)c12 [Compound 10] |  |

More lines, now with the values behind:

| SMILES | IC50 | other results |
| --- | --- | --- |
| O=c1cc(-c2ccccc2)oc2cccc(O)c12 [5-Hydroxyflavone] |  | class as Pim-1 kinase inhibitor (in words): could not inhibit Pim-1 kinase activity |
| O=c1cc(-c2ccccc2)oc2ccc(O)cc12 [6-Hydroxyflavone] |  | class as Pim-1 kinase inhibitor (in words): could not inhibit Pim-1 kinase activity |
| O=c1cc(-c2ccccc2)oc2cc(O)ccc12 [7-Hydroxyflavone] |  | class as Pim-1 kinase inhibitor (in words) (listed as 7-ydroxyflavone): could not inhibit Pim-1 kinase activity |
| O=c1c(O)c(-c2ccccc2)oc2ccccc12 [Compound 4, 3-Hydroxyflavone] | 35.1 µM |  |
| O=c1cc(-c2ccccc2)oc2cc(O)c(O)c(O)c12 [Compound 7] | 5.65 µM |  |
| O=c1cc(-c2ccc(O)c(O)c2)oc2cc(O)cc(O)c12 [Compound 11] | 4.63 µM |  |
